According to US20140187594A1, “DIPHENYL ETHER COMPOUNDS FOR THE TREATMENT OF LIVER, LUNG DISORDERS, DIABETIC COMPLICATIONS AND CARDIOVASCULAR DISEASES” (ORCHID CHEMICALS AND PHARMACEUTICALS LTD, priority 2010, published 2014):

Assays:
[1] = 48 weeks, 4 mg twice daily; Hepatology, 2003, 38, 1008-1017; cited from earlier work
3T3-L1 fibroblasts = assay: Adipogenesis in 3T3-L1 mouse fibroblast (oil red O staining); type: cell-based; conditions: 1 μM or 10 μM, 7 days
Experimental: 3T3-L1 fibroblasts were seeded at a concentration of 10,000 cells/well in 24 well tissue culture plates in a total volume of 1 mL Dulbecco's Modified Eagle Medium (DMEM media) containing 10% fetal bovine serum, penicillin and streptomycin. […] After every two days, the media contents were replaced with fresh media and the drug. This process was carried out for 7 days. After 7 days of treatment, the cells were fixed in 10% formalin for 1 hour at […], stained with oil red 0 solution for 10 minutes and washed 6 times with 1×PBS to remove the excess stain. The plates were dried and visualized under 40× objective using Nikon E200 microscope and the pictures were taken by Nikon DXM 1200C digital camera.

[2] = biological target: T1, Rat lens Aldose reductase (Rattus norvegicus, UniProt P07943); assay: Aldose reductase inhibitory activity; type: biochemical; conditions: rat lens enzyme, 0.2 mM NADPH, pH 6.2, 25° C.
T1 construct: Rat lens Aldose reductase is used; from tissue; host or cells: rat lens
Experimental: Rat lens Aldose reductase is used. Test compound and/or vehicle is preincubated with 3000 μg/ml enzyme (J. Enzyme Inhib. 1993, 7, 249-256; Biol. Pharm. Bull. 1994, 17, 458-459) and 0.2 mM NADPH in phosphate buffer pH 6.2 for 15 minutes at 25° C. The reaction is initiated by addition of 10 mM DL-glyceraldehyde and incubated for another 20 minutes. Determination of the amount of NADPH remained is read spectrophotometrically. Compounds are screened at 10 μM. Since enzyme activity may change from lot to lot, the concentration used will be adjusted if necessary.

[3] = test system: human hepatocytes (HepG2); assay: Selectivity of apoptosis induction: hepatocytes; type: cell-based; conditions: HepG2, PI staining
[4] = test system: Hepatic stellate cells (LX2); assay: Induction of apoptosis in hepatic stellate cells (LX2), propidium iodide staining; type: cell-based; conditions: 8 hours, PI staining
Excerpt: Propidium iodide (PI) has been widely used to measure apoptosis in different experimental systems (Eur. J. Pharmacol., 2003, 473, 117-125; Br. J. Pharmacol., 2009, 158, 1720-1734). […] Next, cells were washed with PBS for 2 times to remove unbound PI and the fluorescence images were acquired with DP71 camera adapted to an Olympus IX71 microscope. Apoptotic cells were detected by propidium iodide (PI) staining and % apoptotic cells per field were estimated. Number of PI positive cells and total number of cells were counted from the images and plotted as percentage of apoptotic cells per field.

[5] = test system: human fibroblast cells isolated from skin biopsies; assay: Selectivity of apoptosis induction: skin fibroblasts; type: cell-based; conditions: PI staining
Experimental: (§1) Propidium iodide (PI) has been widely used to measure apoptosis in different experimental systems (Eur. J. Pharmacol., 2003, 473, 117-125; Br. J. Pharmacol., 2009, 158, 1720-1734). The LX2 cells were treated with vehicle (DMSO), staurosporine (0.1 nM), compound of formula (B) (2 μM), compound of formula (C) (2 μM) for 8 hours followed by propidium iodide (PI) for 10 minute. Next, cells were washed with PBS for 2 times to remove unbound PI and the fluorescence images were acquired with DP71 camera adapted to an Olympus IX71 microscope. Apoptotic cells were detected by propidium iodide (PI) staining and % apoptotic cells per field were estimated. Number of PI positive cells and total number of cells were counted from the images and plotted as percentage of apoptotic cells per field.
(§2) The methodology adopted is same as in Experiment-7 above.
(§3) Apoptotic cells were detected by propidium iodide (PI) staining and % apoptotic cells per field were estimated.

collagen type 1 = assay: Collagen type 1 secretion in activated hepatic stellate cells (western blot); type: cell-based; conditions: overnight incubation, FIGS. 35a & 35b
Experimental: HSC cells were treated with the drugs and incubated overnight. The conditioned media was taken out and the secreted proteins were extracted using TCA-acetone method. The cells were harvested for western blot analysis and 1% SDS was added to the sample. Proteins were detected by using 1:500 dilution of polyclonal antibody to collagen type 1 (Abcam; AB292) and 1:1000 dilutions of goat anti-rabbit IgG conjugated to horseradish peroxidase (Bangalore GENEI). The blots were developed by using substrate TMB/H2O2. Loading control was performed using the β-actin house keeping gene expression level.

[6] = biological target: T2, Matrix metalloproteinase-2 (MMP-2) (Homo sapiens, UniProt P08253); assay: Matrix metalloproteinase-2 (MMP-2) inhibitory activity; type: biochemical
T2 sequence (P08253 110-660): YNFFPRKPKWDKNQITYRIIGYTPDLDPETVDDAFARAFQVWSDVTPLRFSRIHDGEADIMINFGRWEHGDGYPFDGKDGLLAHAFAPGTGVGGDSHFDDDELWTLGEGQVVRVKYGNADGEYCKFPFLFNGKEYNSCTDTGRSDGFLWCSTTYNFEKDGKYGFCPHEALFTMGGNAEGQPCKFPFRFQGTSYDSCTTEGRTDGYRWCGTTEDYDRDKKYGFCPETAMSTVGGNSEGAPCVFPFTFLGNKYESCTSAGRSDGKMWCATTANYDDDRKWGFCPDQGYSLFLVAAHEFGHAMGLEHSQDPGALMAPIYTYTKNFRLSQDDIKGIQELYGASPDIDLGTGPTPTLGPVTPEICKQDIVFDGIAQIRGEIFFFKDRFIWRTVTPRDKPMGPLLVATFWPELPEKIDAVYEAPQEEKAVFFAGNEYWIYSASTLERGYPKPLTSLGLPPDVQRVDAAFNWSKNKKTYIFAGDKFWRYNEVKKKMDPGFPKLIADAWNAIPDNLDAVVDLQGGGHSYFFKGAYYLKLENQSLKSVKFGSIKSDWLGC
Experimental: 3. Matrix Metalloproteinase-2 (MMP-2) Inhibitory Activity (at 10 μM)
MMP-2 enzymes are implicated in lung metastasis and there inhibition is useful to prevent or treat lung metastasis (Journal of Ethnopharmacology 2011, 133, 426-433).

[7] = test system: human endothelial cells (ECV 304); assay: Selectivity of apoptosis induction: endothelial cells; type: cell-based; conditions: ECV 304, PI staining
Experimental: as §1, §2, §3

Row | IC50 [2] [µM] | inhibition at 10 µM [6] [%] | Structure (SMILES) | median weight gain increase [1] [%] | patients in whom weight gain occurred [1] [%] | adipogenesis (intracellular lipids stained with oil red O) (3T3-L1 fibroblasts) | apoptosis vs vehicle (DMSO) [3] | % apoptotic cells per field ([4]; 2 μM) [%] | apoptosis vs vehicle (DMSO) [5] | Collagen secretion by activated hepatic stellate cells (collagen type 1) | apoptosis vs vehicle (DMSO) [7] | % apoptotic cells per field ([4]; 0.1 nM)
1 | – | – | CN(CCOc1ccc(CC2SC(=O)NC2=O)cc1)c1ccccn1 (stereo not shown) [Rosiglitazone] | 7.3 | 67 | – | – | – | – | – | – | –
2 | 4.92 | 59 | N[C@@H](Cc1ccc(Oc2ccc(CC3SC(=O)NC3=O)cc2)cc1)C(=O)O (stereo partly drawn) [Compound of formula (B), (2S)-2-Amino-3-(4-{4-[(2,4-dioxo-1,3-thiazolidin-5-yl)methyl]phenoxy}phenyl)propanoic acid] | – | – | did not induce adipogenesis | no significant apoptosis | 6±0.40 | no significant apoptosis | markedly decreased | no significant apoptosis | –
3 | 1.43 | 16 | O=C(O)Cc1ccc(Oc2ccc(CC3SC(=O)NC3=O)cc2)cc1 (stereo not shown) [Compound of formula (C), (4-{4-[(2,4-Dioxo-1,3-thiazolidin-5-yl)methyl]phenoxy}phenyl)acetic acid] | – | – | did not induce adipogenesis | no significant apoptosis | 7.5±0.64 | no significant apoptosis | markedly decreased | no significant apoptosis | –
4 | – | – | CN[C@@H]1C[C@H]2O[C@@](C)([C@@H]1OC)n1c3ccccc3c3c4c(c5c6ccccc6n2c5c31)C(=O)NC4 [staurosporine, reference compound] | – | – | – | – | – | – | – | – | approximately 23%
